Data on one compound can be found in patent US20050222183A1, “Combination of zd6474, an inhibitor of the vascular endothelial growth factor receptor, with radiotherapy in the treatment of cancer” (priority 2002, published 2005).

Each structure is given as a SMILES string.

For assay [1], the system named is Calu-6 (lung carcinoma) tumour xenografts. The assay can be described thus: Calu-6 xenograft model: ZD6474 25 mg/kg given after ionising radiation. In kind it is in vivo, female Alderley Park nude mice. How it is done:
Calu-6 (lung carcinoma) cells were obtained from the American Type Culture Collection (Manassas, Va.). All cell culture reagents, where not specified, were obtained from Life Technologies, Paisley, UK. Cells were maintained as exponentially growing monolayers in Eagle's Minimal Essential Medium (EMEM) containing 10% FCS (Labtech International, Ringmer, UK), 2 mM L-glutamine (Sigma Chemical Co., Poole, UK), 1% sodium pyruvate (100 mM) and 1% non-essential amino acids. Cells were periodically screened for the presence of microplasma in culture, and analysed for 15 types of virus in a mouse antibody production test (AstraZeneca Central Toxicology Laboratories, Alderley Park, UK) prior to routine use in vivo.
Calu-6 cells (2×10^7 cells/ml) were prepared for implantation in a mixture of 50% (v/v) matrigel (Fred Baker, Liverpool, UK) in serum free Roswell Park Memorial Institute (RPMI)-1640 media. Tumour xenografts were established by subcutaneously injecting 0.1 ml of the cell suspension (i.e. 2×10^6 cells/mouse) into female Alderley Park nude mice (nu/nu genotype; 8-10 weeks of age). Once a palpable tumour was evident, tumour volume was assessed daily by calliper measurement and calculated using the formula, length×width×height.
Mice were randomised into groups of eight, prior to treatment, when tumours measured 225-315 mm^3. Ionising radiation, where given, was administered at a dose rate of 2 Gy per min to unanaesthetised mice restrained in polyvinyl jigs with lead shielding and a cut away section to allow local irradiation of the tumour by the unilateral beam (Pantac X-ray set). Jigs were turned through 180° halfway through the radiation exposure time to provide a uniform dosing. Radiation was administered either as a single dose (5 Gy on day 1) or by multiple daily dosing (2 Gy/day on days 1-3). Thirty minutes after the last dose of radiation, ZD6474 (25 mg/kg), or vehicle, was administered by oral gavage (0.1 ml/10 g body weight) and then once-daily thereafter for a further 13 days (i.e. 14 days of oral treatment in total). ZD6474 was prepared as a suspension in 1% polysorbate 80 (i.e. a 1% (v/v) solution of polyoxyethylene (20) sorbitan mono-oleate in deionised water). Mice were humanely killed when the relative volume of their tumour reached four times that at the initiation of therapy (RTV4). A two-tailed two-sample t-test was used to evaluate the significance of the results obtained.

A further assay has as its system Calu-6 tumours. The assay can be described thus: Calu-6 xenograft model: schedules, ZD6474 50 mg/kg concurrent or sequential with radiotherapy. In kind it is in vivo, mice. The conditions noted are these: for Growth delay (days ± SE): RTV4 relative to control. As to the method:
In an analogous experiment using the Calu-6 xenograft model described hereinbefore different schedules were investigated.
Mice bearing Calu-6 tumours (220-300 mm^3) were randomized into groups of eight, to receive either ZD6474 (50 mg/kg p.o. once daily) or vehicle only (1% polysorbate in deionized water) for the duration of the experiment. ZD6474, or vehicle, was also administered with or without radiotherapy (3×2 Gy at 24-hour intervals during the first 3 days of treatment). Where mice received 50 mg/kg ZD6474 plus radiation therapy, two treatment schedules were examined. • a) Concurrent combination treatment: ZD6474 dosing given 2 hours prior to the first dose of radiation; and • b) Sequential combination treatment: ZD6474 dosing given 30 minutes after the last dose of radiotherapy. […]
Treatment efficacy was assessed by measuring the time for tumours to quadruple in volume (RTV4) from their pretreatment size and calculating the relative growth delay (i.e. comparing RTV4 values from individual treated groups, with that of the control).

Regarding `COc1cc2c(Nc3ccc(Br)cc3F)ncnc2cc1OCC1CCN(C)CC1` [ZD6474, 4-(4-bromo-2-fluoroanilino)-6-methoxy-7-(1-methylpiperidin-4-ylmethoxy)quinazoline], the “RTV4” value in assay [1] (3 × 2Gy (days 1-3), then ZD6474 25 mg/kg/day oral for 14 days post-irradiation) amounted to 28.1 days; in assay [1] (5 Gy single dose on day 1, then ZD6474 25 mg/kg/day oral for 14 days post-irradiation) it was 25.5 days; in assay [1] (ZD6474 25 mg/kg/day oral for 14 days, no radiation, time for tumour to reach four times its volume at initiation of therapy), 12.1 days. Moreover, in assay [1] (5 Gy or 3×2 Gy plus ZD6474 25 mg/kg), the “Therapeutic effect of radiation plus ZD6474 versus either therapy alone” value is listed as “better therapeutic effect than either therapy alone”. The “Growth delay of combination versus either single treatment” value in the assay with Calu-6 tumours (50 mg/kg ZD6474 combined with 3×2 Gy radiation) is recorded as “significantly greater than that of either single treatment alone”. Further, the “RTV4 (days ± SE)” value is on record as 17 ± 1.0 days in the assay with Calu-6 tumours (50 mg/kg ZD6474 p.o. once daily, no radiation, n = 8); 30 ± 1.0 days with Calu-6 tumours (3 × 2 Gy plus 50 mg/kg ZD6474 (concurrent: dosing begun 2 hours prior to first dose of radiation)); 44 ± 0.9 days in the assay with Calu-6 tumours (3 × 2 Gy plus 50 mg/kg ZD6474 (sequential: dosing begun 30 minutes after last dose of radiotherapy)). The “Growth delay (days ± SE)” value in the assay on Calu-6 tumours (50 mg/kg ZD6474 p.o. once daily, no radiation) stood at 9 ± 1.1 days; in the assay with Calu-6 tumours (3 × 2 Gy plus 50 mg/kg ZD6474 (concurrent)), 22 ± 1.1 days; in the assay on Calu-6 tumours (3 × 2 Gy plus 50 mg/kg ZD6474 (sequential)), 36 ± 1.0 days. The “Tumour growth inhibition, sequential versus concurrent combination” value in the assay on Calu-6 tumours (3×2 Gy radiation and 50 mg/kg ZD6474) is given as “inhibited tumour growth significantly more than when the same agents were combined concurrently”. Also, the “Antitumour effect of sequential combination versus sum of individual therapies” value in the assay with Calu-6 tumours (sequential 3×2 Gy radiation and 50 mg/kg ZD6474) was “greater than the sum of the growth delays induced by the individual therapies”.
